Literature values in patent EP0356866A2, “Phosphorus-containing squalene synthetase inhibitors and method” (E.R. SQUIBB & SONS, INC., priority 1988, dated 1990).

Target: T1, avian liver farnesyl diphosphate synthetase (Gallus gallus, UniProt P08836)
T1 construct: host or cells: avian liver
T1 sequence (P08836 1-367): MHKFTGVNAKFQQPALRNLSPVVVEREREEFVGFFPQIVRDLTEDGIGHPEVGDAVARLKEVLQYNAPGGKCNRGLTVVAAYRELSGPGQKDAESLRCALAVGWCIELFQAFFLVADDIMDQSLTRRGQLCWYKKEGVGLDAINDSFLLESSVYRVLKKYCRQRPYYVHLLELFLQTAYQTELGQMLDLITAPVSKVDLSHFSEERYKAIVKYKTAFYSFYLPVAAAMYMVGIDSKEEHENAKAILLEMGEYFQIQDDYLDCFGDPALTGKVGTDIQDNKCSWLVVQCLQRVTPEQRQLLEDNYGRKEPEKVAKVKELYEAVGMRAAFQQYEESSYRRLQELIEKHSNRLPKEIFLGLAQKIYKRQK
Conditions: competitive inhibitors of the 1′-4-condensation between isopentenyl diphosphate and geranyl diphosphate

In the case of C=C(C)CCCP(=O)(O)CP(=O)(O)O [G], the Ki is given as 19 µM.

For CC(C)=CCCP(=O)(O)CP(=O)(O)O [H], the Ki is listed as 71 µM.
